From patent US20200109126A1 (priority 2017, published 2020) come the findings set out here.

In general, Ki refers to a dissociation constant, usually derived from enzyme kinetics or from competition with a known ligand. The term EC50 denotes the concentration that produces a half-maximal response.

Where two headings read alike, the source gives them in different places.

The target in one experiment is humanDOR (Homo sapiens, UniProt P41143). Put plainly: Receptor binding with [3H]diprenorphine at human DOR.
For a further experiment, the target named is hMOR (Homo sapiens, UniProt P35372). Put plainly: Receptor binding with [3H]diprenorphine at hMOR.
For the next experiment, the target named is T1, MM1 (MOR N127C) (Homo sapiens, UniProt P35372, N129C).
T1 construct: expressed in transfected cells; host or cells: HEK 293
Put plainly: Receptor binding at MM1 (MOR N127C).

For a further experiment, the target named is hKOR (Homo sapiens, UniProt P41145). As to the kind of experiment: Receptor binding with [3H]diprenorphine at hKOR.
The next experiment has as its target T2, κOR (Homo sapiens, UniProt P41145).
T2 construct: NIMH Psychoactive Drug Screening Program (PDSP)
Put plainly: Radioligand binding at κOR (PDSP). Conditions: for Ki: analogs, full dose-response; for κOR Ki, given as percentage: <50% instead of a Ki.

In experiment [1] the target is T3, μOR (Homo sapiens, UniProt P35372). Put plainly: cell-based. It is filed as cell-based. Conditions: ND = not detectable under these experimental conditions.
The target of experiment [2] is T3, μOR. As to the kind of experiment: biochemical. The class given is binding. Also noted: expressed in transfected cells; host or cells: HEK293 membranes (Ki); Sf9 insect cell membranes (single-point screen); PDSP for analogs.
Procedure: For a primary screen of selected molecules, binding to OR was assessed by measuring competition against the radioligand ^3H-diprenorphine (^3H-DPN). […] The reaction contained 40 fmol of μOR and was incubated in a buffer of 20 mM HEPES pH 7.5, 100 mM sodium chloride, and 0.1% bovine serum albumin for 1 hour at 25° C. To separate free from bound radioligand, reactions were rapidly filtered over Whatman GF/B filters with the aid of a Brandel harvester and ^3H-DPN counts were measured by liquid scintillation.
Where [3] appears, read: PZM analogs, (n) = number of independent experiments, read-out: binding affinity Ki hDOR.
[4] abbreviates: PZM analogs, (n) = number of independent experiments, read-out: binding affinity Ki hMOR.
Where [5] appears, read: (n) = number of independent experiments, read-out: binding affinity Ki MM1 (MOR N127C).
The mark [6] stands for this setting: PZM analogs, (n) = number of independent experiments, read-out: binding affinity Ki hKOR.
Setting [7] is: analogs, full dose-response, read-out: μOR Ki.

Sequence of hMOR (P35372 whole entry): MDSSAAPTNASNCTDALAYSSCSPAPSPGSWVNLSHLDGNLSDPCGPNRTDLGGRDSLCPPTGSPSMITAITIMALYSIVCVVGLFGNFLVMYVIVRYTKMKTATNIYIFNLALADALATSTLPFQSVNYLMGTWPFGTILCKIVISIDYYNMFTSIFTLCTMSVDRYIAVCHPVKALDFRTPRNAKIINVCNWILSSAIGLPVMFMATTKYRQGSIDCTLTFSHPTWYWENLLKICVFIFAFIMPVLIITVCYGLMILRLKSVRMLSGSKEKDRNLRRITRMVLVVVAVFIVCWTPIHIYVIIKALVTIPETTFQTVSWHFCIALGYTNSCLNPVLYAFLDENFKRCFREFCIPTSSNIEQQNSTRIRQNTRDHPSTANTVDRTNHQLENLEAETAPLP
T3 sequence (P35372 whole entry): as above
T2 sequence (P41145 whole entry): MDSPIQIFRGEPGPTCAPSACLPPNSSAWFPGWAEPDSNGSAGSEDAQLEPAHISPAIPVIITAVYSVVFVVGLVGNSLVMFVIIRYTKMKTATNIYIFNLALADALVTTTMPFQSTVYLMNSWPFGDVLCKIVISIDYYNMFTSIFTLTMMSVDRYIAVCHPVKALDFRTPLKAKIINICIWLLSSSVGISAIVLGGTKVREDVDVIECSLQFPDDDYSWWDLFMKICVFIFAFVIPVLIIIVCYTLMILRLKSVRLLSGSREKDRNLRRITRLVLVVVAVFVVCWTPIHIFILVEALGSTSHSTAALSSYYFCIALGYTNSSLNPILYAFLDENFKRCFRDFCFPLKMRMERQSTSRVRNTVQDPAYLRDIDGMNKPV
Sequence of hKOR (P41145 whole entry): as above
T1 sequence (P35372 whole entry N129C): as the sequence (P35372 whole entry) above, with N129C counted along it
Sequence of humanDOR (P41143 whole entry): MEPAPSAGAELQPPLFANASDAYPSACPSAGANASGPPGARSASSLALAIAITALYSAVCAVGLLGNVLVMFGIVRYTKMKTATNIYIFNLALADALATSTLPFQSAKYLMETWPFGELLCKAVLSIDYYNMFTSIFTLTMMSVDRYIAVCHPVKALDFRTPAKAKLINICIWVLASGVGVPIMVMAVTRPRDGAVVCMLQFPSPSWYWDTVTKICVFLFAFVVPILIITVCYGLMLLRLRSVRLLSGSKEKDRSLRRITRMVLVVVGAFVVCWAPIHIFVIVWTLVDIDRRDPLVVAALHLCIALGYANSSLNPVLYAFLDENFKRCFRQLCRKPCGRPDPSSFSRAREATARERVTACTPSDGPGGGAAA

For the compound `C[C@@H](Cc1ccsc1)NC(=O)NC[C@H](Cc1ccc(O)nc1)N(C)C`, the Ki at humanDOR (setting [3]) was > 20000 nM; on hMOR (setting [4]), 4600 nM; at MM1 (MOR N127C) (setting [5]), 3800 nM; on hKOR (setting [6]) it was 12000 nM.
The matching figures for `CN(C)[C@H](CNC(=O)NCCN1C(=O)C=CC1=O)Cc1ccc(O)cc1`: 450 nM, 240 nM, 3.7 nM and 600 nM.
For the compound `CN(C)[C@H](CNC(=O)NCCCN1C(=O)C=CC1=O)Cc1ccc(O)cc1`, the Ki on humanDOR (setting [3]) stood at 3100 nM; on hMOR (setting [4]), 380 nM; at MM1 (MOR N127C) (setting [5]), 4.7 nM; at hKOR (setting [6]) it was 450 nM.
The matching figures for `CN(C)[C@H](CNC(=O)NCCCCN1C(=O)C=CC1=O)Cc1ccc(O)cc1`: 4900 nM, 1000 nM, 5.9 nM and 760 nM.
On the same counts, the results for `Cc1cc(O)cc(C)c1C[C@@H](CNC(=O)NCCN1C(=O)C=CC1=O)N(C)C` are 150 nM, 18 nM, 0.93 nM and 200 nM.
On the same counts, the results for `C[C@@H](CN1C(=O)C=CC1=O)NC(=O)NC[C@H](Cc1ccc(O)cc1)N(C)C` are 860 nM, 410 nM, 5.6 nM and 1200 nM.
Take `C[C@H](CN1C(=O)C=CC1=O)NC(=O)NC[C@H](Cc1ccc(O)cc1)N(C)C`: the Ki turned out to be 210 nM on humanDOR (setting [3]), 90 nM on hMOR (setting [4]), 0.13 nM on MM1 (MOR N127C) (setting [5]) and 690 nM on hKOR (setting [6]).
Consider `CN(C)[C@H](CNC(=O)NCCc1c[nH]nn1)Cc1ccc(O)cc1`, for which the Ki on humanDOR worked out at 4700 nM; on hMOR, 960 nM; at MM1 (MOR N127C) it was 630 nM; on hKOR it was 1400 nM.
In the case of `CC(C)[C@H](CNC(=O)c1ccc([N+](=O)[O-])s1)N1CCc2ccccc2C1` [compound 8], the Ki at κOR (read-out: κOR Ki) stood at 0.46 µM; at μOR [2] (setting [7]), 820 nM. For the same compound, the EC50 at μOR [1] (read-out: μOR Gi EC50) came to 6.6 µM.
For the compound `O=C(Cc1cn2ccccc2n1)NCC1(c2ccccc2)CCC1` [compound 9], the Ki on κOR (κOR Ki (μM)) was found to be 1.36 µM. In addition, on μOR [2] (<50% instead of a Ki), the “μOR Ki column, given as percentage” value is listed as <50%.
For `CN(Cc1nnc(C2CC2)n1C)C(=O)NC[C@@H](Cc1ccccc1)N(C)C` [compound 10], the “κOR Ki, given as percentage” value at κOR is on record as <50%. At μOR [2], this compound came in with an inhibition constant (Ki) of 4750 nM.
For `CN(C)[C@@H](CNC(=O)NC[C@@H](O)c1cnn(C)c1)Cc1ccccc1` [compound 11], the “κOR Ki, given as percentage” value at κOR is listed as <50%. Further, at μOR [2] (setting [7]), the Ki was 1860 nM.
For the compound `COc1nc(C)cc(C)c1CNC(=O)NC[C@@H](Cc1ccccc1)N(C)C` [compound 13], the Ki at κOR (κOR Ki (μM)) was 1.02 µM; at μOR [2], 550 nM. This compound also displayed an EC50 on μOR [1] (μOR Gi EC50 (μM)) of 3.1 µM.
As for `CN(C)[C@H](CNC(=O)NCc1cccc([N+](=O)[O-])c1)Cc1ccccc1` [compound 14], the Ki is 0.51 µM on κOR (κOR Ki (μM)) and 87 nM on μOR [2]. Moreover, the EC50 at μOR [1] (μOR Gi EC50 (μM)) came out at 0.44 µM.
On to `Cc1nc(CNC(=O)NC[C@@H](Cc2ccccc2)N(C)C)sc1C` [compound 15], for which the “κOR Ki, given as percentage” value on κOR was <50%. Further, affinity on μOR [2] was put at a Ki of 130 nM.
Turning to `CN(C)[C@H](CNC(=O)NCCc1cn(CCSSCCN=[N+]=[N-])nn1)Cc1ccc(O)cc1` [drawing 545], the Ki turned out to be 3900 nM at humanDOR (setting [3]), 420 nM on hMOR (setting [4]), 34 nM at MM1 (MOR N127C) (setting [5]) and 1500 nM at hKOR (setting [6]).
